Reference: ChEMBL document CHEMBL1201862, “PubChem BioAssay data set” (2004)
Calls of active or inactive are those of the source.

Tests used:
P388 = experiment: cells; type: functional; conditions: Mus musculus
P388/ADR = experiment: cells; type: functional; conditions: Mus musculus
SN12K1 = experiment: cells; type: functional; conditions: Homo sapiens
[1] = off-target signal loss in HeLa-CEM21 co-culture – HeLa F-luc CTL cells, cherry-picked, counter-screen for HIV-1 Env fusion inhibitor project, dose response (AID 652040); type: functional, cell-based;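 also: potency for signal decrease marking cytotoxic or nonspecific inhibition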
[2] = inhibitors of HIV Env-driven cell fusion, dose response, cherry-pick (AID 652057); type: functional, cell-based
[3] = ZM109 Env clade C HIV-1 fusion inhibitors, dose response, HeLa effector, CEM target cells, luciferase, cherry-pick (AID 652058); type: functional, cell-based
[4] = inhibitors of clade B AD8 Env fusion, dose response, cell-based, cherry-pick (AID 652062); type: functional;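 also: luciferase signal from cell-cell fusion driven by HIV-1 clade B AD8 Env; potency is for inhibitors of fusion seen as a drop in luminescence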
Estrogen receptor beta = Estrogen receptor beta (Homo sapiens, UniProt Q92731);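 also: recombinant ER-beta bound to coactivator SRC1 peptide in presence of estradiol agonist; inhibitors block coactivator peptide binding and lower the FRET signal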
[5] = LGR2 antagonists, dose response, cell-based, HEK293, CRE-luciferase reporter, cherry pick, set 2 (AID 743343); type: functional;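 also: transfected cells were stimulated with diluted bursicon conditioned medium after compound addition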
[6] = MC4R antagonists, dose response, counter-screen for LGR2 antagonist project, cell-based, plate reader, cherry pick (AID 743444); type: functional;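 also: transfected HEK 293 cells stimulated with alpha-MSH peptide; potency of inhibitors of the alpha-MSH evoked signal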
HEK293 = experiment: inhibitors of LMP1-driven NF-kB reporter, dose response, cell-based, HEK293, luciferase, cherry-pick (AID 588343); type: functional; conditions: Homo sapiens
[7] = biological target: T1, DNA repair protein RAD52 homolog (Homo sapiens, UniProt P43351); type: functional, biochemical
T1 sequence (P43351 whole entry): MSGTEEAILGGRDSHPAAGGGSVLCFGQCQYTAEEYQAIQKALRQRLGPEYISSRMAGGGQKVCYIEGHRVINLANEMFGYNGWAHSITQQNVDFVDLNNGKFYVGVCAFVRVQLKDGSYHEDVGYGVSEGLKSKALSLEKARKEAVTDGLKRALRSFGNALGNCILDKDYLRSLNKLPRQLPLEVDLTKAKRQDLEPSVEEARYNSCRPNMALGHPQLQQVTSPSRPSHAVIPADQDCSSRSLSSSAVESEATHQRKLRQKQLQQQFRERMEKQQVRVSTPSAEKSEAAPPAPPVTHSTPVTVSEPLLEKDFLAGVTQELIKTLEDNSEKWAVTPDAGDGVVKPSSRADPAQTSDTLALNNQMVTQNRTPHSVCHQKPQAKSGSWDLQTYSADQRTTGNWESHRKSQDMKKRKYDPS

[8] = Shn3 3'UTR reporter inhibitors, dose response, cell-based, Clone20 osteoblasts, firefly luciferase, cherry-picked (AID 624132); type: functional;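 also: firefly luciferase luminescence from reporter carrying the Shn3 3'UTR in osteoblasts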
[9] = inhibitors of intracellular T. cruzi replication, confirmation, NIH3T3 host cells, beta-gal luminescence (AID 2044); type: functional, cell-based;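 also: intracellular parasites grown in NIH/3T3 mouse fibroblasts as host cells; luminescent beta-galactosidase reporter signal from transgenic T. cruzi replicating inside host cells; inhibitors lower the luminescence signal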
cells [10] = type: functional, cell-based
[11] = HepG2 cell cytotoxicity, dose response, cytotoxicity control for Shn3 inhibitor project, CellTiter-Glo, cherry-picked (AID 624134); type: functional, cell-based
cells [12] = type: functional, cell-based; remark: listed apart in the source
[13] = control 3'UTR Renilla luciferase suppression, dose response, counter-screen for Shn3 inhibitor project, cell-based, Clone20-Shn3RL, cherry-picked (AID 624133); type: functional
[14] = cytotoxicity toward NIH3T3 fibroblasts, dose response, counter-screen, cell-based, ATP luminescence, mouse fibroblasts (AID 2010); type: functional;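 also: cells exposed to compound for about 90 hours before reading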
Streptokinase A = biological target: T2, Streptokinase A (Streptococcus pyogenes serotype M1, UniProt P10520); experiment: S. pyogenes streptokinase expression inhibitors, potency, dose response, plasminogen activation absorbance, OD405 (AID 1914); type: functional, Streptococcus pyogenes M1 GAS;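 also: secreted streptokinase activity via plasminogen activation per viability signal from cell pellet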
T2 sequence (P10520 whole entry): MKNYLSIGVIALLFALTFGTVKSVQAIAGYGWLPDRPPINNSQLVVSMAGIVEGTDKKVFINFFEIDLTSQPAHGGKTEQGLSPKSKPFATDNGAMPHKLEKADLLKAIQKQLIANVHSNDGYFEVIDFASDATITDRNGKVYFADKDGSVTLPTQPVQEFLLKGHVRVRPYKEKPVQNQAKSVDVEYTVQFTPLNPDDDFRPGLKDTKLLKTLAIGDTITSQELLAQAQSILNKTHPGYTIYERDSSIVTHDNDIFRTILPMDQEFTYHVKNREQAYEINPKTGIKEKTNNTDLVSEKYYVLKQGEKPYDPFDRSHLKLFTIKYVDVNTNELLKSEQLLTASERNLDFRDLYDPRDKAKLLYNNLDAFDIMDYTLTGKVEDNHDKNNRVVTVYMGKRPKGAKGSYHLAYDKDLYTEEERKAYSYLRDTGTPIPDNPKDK

Cytochrome P450 2D6 = Cytochrome P450 2D6 (Homo sapiens, UniProt P10635);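 also: CYP2D6 member of a cytochrome P450 panel assay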
[15] = tested on: Streptococcus sp. 'group A'; experiment: growth inhibition of control SK(-) GAS strain, dose response, counter-screen for streptokinase expression inhibitor project, luminescence, kanamycin, BacTiterGlo, confirmation (AID 1900); type: functional, organism-based
Streptococcus = experiment: Group A Streptococcus viability loss, dose response, counter-screen for streptokinase expression inhibitor project, luminescence, BacTiterGlo (AID 1915); type: functional, organism-based;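 also: potency for reduction of bacterial viability or growth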
[16] = Luminescence Cell-Based Dose Retest to Confirm Inhibitors of Cancer Stem Cells. [Related pubchem assays (depositor defined):AID2717, AID2721]; type: functional; conditions: Homo sapiens
[17] = biological target: T3, Polyadenylate-binding protein 1 (Homo sapiens, UniProt P11940); experiment: PABP1 MLLE–PAM2 interaction inhibitors, dose response, miRNA deadenylation inhibitor project, biochemical, fluorescence polarization, Cy5-PAM2 peptide, secondary (AID 602260); type: functional; conditions: read-out: IC50_Mean
[18] = biological target: T3, Polyadenylate-binding protein 1; experiment: PABP1 MLLE–PAM2 binding inhibitor potency, dose response, biochemical, fluorescence polarization, FITC-PAM2 peptide (AID 602259); type: functional; conditions: read-out: IC50_Mean

Estrogen receptor beta, sequence (Q92731 whole entry): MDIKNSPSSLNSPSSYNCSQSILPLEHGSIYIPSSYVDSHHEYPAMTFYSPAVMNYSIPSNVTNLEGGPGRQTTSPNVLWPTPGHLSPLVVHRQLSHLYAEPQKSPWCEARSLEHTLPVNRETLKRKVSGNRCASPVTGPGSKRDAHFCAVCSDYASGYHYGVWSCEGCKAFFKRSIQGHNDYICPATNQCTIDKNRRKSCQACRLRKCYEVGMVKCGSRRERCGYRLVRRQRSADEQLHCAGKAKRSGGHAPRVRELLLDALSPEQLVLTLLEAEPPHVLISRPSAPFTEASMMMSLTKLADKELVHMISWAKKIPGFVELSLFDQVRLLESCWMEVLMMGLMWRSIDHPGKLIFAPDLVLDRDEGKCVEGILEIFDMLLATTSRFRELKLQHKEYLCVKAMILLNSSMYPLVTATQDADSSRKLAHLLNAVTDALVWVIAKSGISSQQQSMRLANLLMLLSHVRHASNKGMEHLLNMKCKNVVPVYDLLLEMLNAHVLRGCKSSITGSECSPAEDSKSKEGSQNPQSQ
T3 sequence (P11940 whole entry): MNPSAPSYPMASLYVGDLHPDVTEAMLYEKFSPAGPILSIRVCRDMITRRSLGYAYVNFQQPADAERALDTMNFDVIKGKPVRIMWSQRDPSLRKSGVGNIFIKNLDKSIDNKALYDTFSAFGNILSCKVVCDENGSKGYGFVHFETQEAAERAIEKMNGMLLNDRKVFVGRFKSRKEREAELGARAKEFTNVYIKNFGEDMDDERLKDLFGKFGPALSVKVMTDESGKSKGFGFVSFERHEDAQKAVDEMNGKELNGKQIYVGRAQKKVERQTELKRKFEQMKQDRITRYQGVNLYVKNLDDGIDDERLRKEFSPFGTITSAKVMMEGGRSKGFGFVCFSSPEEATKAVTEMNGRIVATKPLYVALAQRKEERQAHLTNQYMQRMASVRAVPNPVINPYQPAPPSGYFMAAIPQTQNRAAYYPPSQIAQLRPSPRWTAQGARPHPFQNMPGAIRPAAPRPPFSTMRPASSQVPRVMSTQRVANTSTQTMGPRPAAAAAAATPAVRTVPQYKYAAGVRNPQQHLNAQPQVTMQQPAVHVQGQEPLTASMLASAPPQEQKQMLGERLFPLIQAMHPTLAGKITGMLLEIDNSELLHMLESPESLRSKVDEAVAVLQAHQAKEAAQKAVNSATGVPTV
Cytochrome P450 2D6, sequence (P10635 whole entry): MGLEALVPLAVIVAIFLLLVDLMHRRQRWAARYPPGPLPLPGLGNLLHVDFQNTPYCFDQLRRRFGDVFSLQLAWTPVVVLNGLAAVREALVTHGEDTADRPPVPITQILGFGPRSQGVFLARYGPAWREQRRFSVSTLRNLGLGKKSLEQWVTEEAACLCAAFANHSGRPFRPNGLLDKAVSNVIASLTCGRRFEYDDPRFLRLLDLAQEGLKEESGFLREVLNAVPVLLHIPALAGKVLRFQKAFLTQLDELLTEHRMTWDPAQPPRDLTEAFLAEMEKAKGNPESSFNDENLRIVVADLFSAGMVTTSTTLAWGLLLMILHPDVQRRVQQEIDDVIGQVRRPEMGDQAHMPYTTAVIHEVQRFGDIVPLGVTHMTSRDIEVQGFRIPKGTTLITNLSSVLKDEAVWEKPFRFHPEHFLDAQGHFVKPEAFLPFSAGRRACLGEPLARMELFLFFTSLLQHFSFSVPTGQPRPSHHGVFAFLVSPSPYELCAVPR

**Q.** With `O=NN(CCF)C(=O)NC1CC2CCC1C2` (configuration not stated) as the compound, how does the GI50 (P388) read?
**A.** Its GI50 is 15.8 µM (inactive).

**Q.** What about the GI50 (P388/ADR) of the same compound?
**A.** Its GI50 is 24.5 µM (inactive).

**Q.** And the GI50 (SN12K1)?
**A.** The GI50 was > 100 µM (inactive).

**Q.** With `Cc1ccc(S(=O)(=O)N2CCC(=O)N(CCOCc3ccc(C(F)(F)F)cc3)CC2)cc1` as the compound, how does the AC50 [1] read?
**A.** The AC50 was 14.6 µM (active).

**Q.** And the AC50 [2]?
**A.** Its AC50 is 5.79 µM (active).

**Q.** And the AC50 [3]?
**A.** The AC50 was 3.68 µM (active).

**Q.** And the AC50 [4]?
**A.** Its AC50 is 6.53 µM (active).

**Q.** Which IC50 (Estrogen receptor beta) does the source give for `COc1ccc(Cn2nnnc2C(c2ccccc2OC)N2CCC(C(N)=O)CC2)cc1` (configuration not stated) here?
**A.** The IC50 was > 50 µM (not active).

**Q.** For `N#C/C(=C\c1c(N2CCC(C(N)=O)CC2)nc2ccccn2c1=O)S(=O)(=O)c1ccccc1`, which IC50 (Estrogen receptor beta) is on record?
**A.** Its IC50 is > 50 µM (not active).

**Q.** For `O=C(CN1C(=O)c2ccccc2S1(=O)=O)c1ccc(F)c(F)c1`, which AC50 [5] is on record?
**A.** Its AC50 is 9.41 µM (active).

**Q.** And the AC50 [6]?
**A.** The AC50 was 3.42 µM (active).

**Q.** What about the AC50 (HEK293) of the same compound?
**A.** Its AC50 is 6.76 µM (active).

**Q.** With `CCCNc1nc(Cl)nc(NCc2cccnc2)n1` as the compound, how does the AC50 [7] read?
**A.** Its AC50 is 4.26 µM (active).

**Q.** Which AC50 [8] does the source give for `O=C(NNC(=O)c1cccnc1SCc1cccc([N+](=O)[O-])c1)c1ccccn1` here?
**A.** The AC50 was 1.9 µM (active).

**Q.** What about the EC50 [9] of the same compound?
**A.** Its EC50 is 994 nM (active).

**Q.** And the EC50 (cells [10])?
**A.** The EC50 was > 350 µM (not active).

**Q.** And the AC50 [11]?
**A.** The AC50 was 7.84 µM (active).

**Q.** What about the EC50 (cells [12]) of the same compound?
**A.** Its EC50 is 27.8 µM (active).

**Q.** And the AC50 [13]?
**A.** The AC50 was 1.32 µM (active).

**Q.** And the EC50 [14]?
**A.** The EC50 was 1.65 µM (active).

**Q.** What does the source list for `CCC/C=C(\CCC)C(NS(=O)(=O)c1ccc(C(F)(F)F)cc1)c1ccccc1` (configuration not stated)?
**A.** EC50 (Streptokinase A): 2.24 µM (active); AC50 (Cytochrome P450 2D6): 20 µM (inconclusive); EC50 [15]: 2.73 µM (active); EC50 (Streptococcus): 22.5 µM (active); AC50 [16]: 3.36 µM (active)

**Q.** With `O=C(c1ccc2ncsc2c1)N1CCN(c2nc3ccccc3s2)CC1` as the compound, how does the AC50 [1] read?
**A.** The AC50 was 3.19 µM (active).

**Q.** What about the AC50 [2] of the same compound?
**A.** Its AC50 is 4.18 µM (active).

**Q.** What about the AC50 [3] of the same compound?
**A.** The AC50 was 8.38 µM (active).

**Q.** What about the AC50 [4] of the same compound?
**A.** The AC50 was 8.65 µM (active).

**Q.** For `Cn1cc([N+](=O)[O-])c(C(=O)Nc2sc3c(c2C#N)CCC3)n1`, which AC50 [8] is on record?
**A.** Its AC50 is 0.88 µM (active).

**Q.** What about the AC50 [11] of the same compound?
**A.** The AC50 was 8.93 µM (active).

**Q.** What does the source list for `COc1ccc(C(N)=S)c(OC)c1`?
**A.** IC50 [17]: > 66 µM (inactive); IC50 [18]: > 66 µM (inactive); AC50 [7]: 9.26 µM (active)

**Q.** For `CCCCN1C2CCCC1CC(NC(=O)C1CCCCC1)C2` (configuration not stated), which AC50 (HEK293) is on record?
**A.** Its AC50 is 237 µM (active).

**Q.** For `CCN(C[C@H]1N[C@@](C)(C(=O)OC)[C@H]2C(=O)N(Cc3ccccc3)C(=O)[C@@H]12)S(=O)(=O)c1ccc(C)cc1`, which AC50 [1] is on record?
**A.** The AC50 was 21.4 µM (active).

**Q.** And the AC50 [2]?
**A.** Its AC50 is 5.73 µM (active).

**Q.** What about the AC50 [3] of the same compound?
**A.** The AC50 was 15 µM (active).

**Q.** What about the AC50 [4] of the same compound?
**A.** The AC50 was 69.3 µM (active).

**Q.** For `O=C(Cn1ccnc1[N+](=O)[O-])N(CCO)CCO`, which GI50 (P388) is on record?
**A.** The GI50 was > 1250 µM (inactive).

**Q.** And the GI50 (P388/ADR)?
**A.** The GI50 was > 1250 µM (inactive).

**Q.** And the GI50 (SN12K1)?
**A.** Its GI50 is > 1250 µM (inactive).
